Assay results taken from US8691184B2, “Bcl-2/Bcl-xL inhibitors and therapeutic methods using the same” (The Regents of the University of Michigan, priority 2011, dated 2014).
“And” between values parts separate entries of the source, which are not always exact repeats. Equal values may be shown once. Read-outs that look alike come from different tables or passages of the source.

Assays:
H146 cells = assay: Cell growth assay (WST-8), H146; format: cell-based; conditions: Homo sapiens, NCI-H146, 96 h
Procedure: (§1) RS4;11 and H146 cells were seeded in 96-well cell culture plates at a density of 10,000 cells/well with serially diluted compounds and incubated at 37° C. in an atmosphere of 95% air and 5% CO2 for 4 days. Cell viability was determined using the WST-8 (2-(2-methoxy-4-nitrophenyl)-3-(4-nitrophenyl)-5-(2,4-disulfophenyl)-2H-tetrazolium, monosodium salt) based Cell Counting-8 Kit (Dojindo Molecular Technologies, Inc., Rockville, Md.) according to the manufacture's instruction. Briefly, WST-8 was added to each well at a final concentration of 10% (v/v), and then the plates were incubated at 37° C. for 1˜2 hours for color development. The absorbance was measured at 450 nm using a SPECTRAmax PLUS plate reader (Molecular Devices, Sunnyvale, Calif.). The half maximal inhibitory concentration (IC50) was calculated using the GraphPad Prism 5 software (GraphPad Software, La Jolla, Calif.).

ML-2 cell line = assay: Western blot of PARP and caspase-3 cleavage, ML-2; format: cell-based; conditions: as low as 100 nM, 8-hr treatment
Procedure: (§2) Cells were lysed with lysis buffer (PBS containing 1% NP40, 0.5% Na-deoxycholate, and 0.1% SDS) supplemented with protease inhibitors (α-complete, Roche). The protein extracts were quantified using a calorimetric assay (Bradford Reagent) (BioRad, Hercules, Calif.). Proteins were electrophoresed onto 4-20% SDS-PAGE gels (Invitrogen) and transferred onto polyvinylidene difluoride membranes (Bio-Rad). Following blocking in 5% milk, membranes were incubated with a specific primary antibody, washed, and incubated with horseradish peroxidase-linked secondary antibody (Pierce). The signals were visualized with the chemiluminescent horseradish peroxidase antibody detection reagent (Denville Scientific).

ML-2 AML cell line = assay: Apoptosis assay (Annexin-V/PI flow cytometry), ML-2; format: cell-based; conditions: 300 nM, 24 hr
Procedure: (§3) Apoptosis assay was performed using the Annexin-V-FLUOS Staining kit (Roche Diagnostics, Indianapolis, Ind.) according to the manufacturer's instruction. Briefly, cells were treated with compounds for the indicated time points, harvested and washed with PBS. Cells were stained with Annexin V-FITC and Propidium iodide for 15 minutes at room temperature in the dark before analyzed with a BD Biosciences FACSCaliburs (Becton Dickinson).

H146 cell line = assay: Western blot of PARP and caspase-3 cleavage, H146; format: cell-based; conditions: as low as 100 nM, 8-hr treatment
Procedure: as §2

[1] = system: H146 small-cell lung cancer cell line; assay: Cell death assay (trypan blue), H146; format: cell-based; conditions: trypan blue assay
Procedure: Cell death assay was performed using a Trypan blue exclusion test of cell viability. One million cells were seeded in 6-well plates and incubated at 37° C. in an atmosphere of 95% air and 5% CO2 with or without compounds for the indicated time points. At the end of treatment, cells were collected and centrifuged at 1000 rpm for 5 minutes. The cell pellets were re-suspended in PBS and mixed with 0.4% Trypan blue (Invitrogen) at 1:1 dilution to determine cell viability using Olympus CKX41 microscope (Olympus, Center Valley, Pa.).

RS4;11 cells = assay: Cell growth assay (WST-8), RS4;11; format: cell-based; conditions: Homo sapiens, RS4-11, 96 h
Procedure: as §1

RS4;11 cell line [2] = assay: Apoptosis assay (Annexin-V/PI flow cytometry), RS4;11; format: cell-based; conditions: time- and dose-dependent, Annexin-V/PI
Procedure: as §3

RS4;11 cell line [3] = assay: Western blot of PARP and caspase-3 cleavage, RS4;11; format: cell-based; conditions: as low as 100 nM, 8-hr treatment
Procedure: as §2

cellular Bcl-2/Bcl-xL = assay: Competitive pull-down against Biotin-150 in ML-2 and H146 cell lysates; format: binding; conditions: competitive experiment
[4] = system: ML-2 acute myeloid leukemia (AML) cell line; assay: Cell growth assay (WST-8), ML-2; format: cell-based
Mcl-1 = Mcl-1 (Homo sapiens, UniProt Q07820); assay: FP-based binding assay, Mcl-1; conditions: for IC50: Table 4, FP-based assay, read-out: Binding Affinities Mcl-1 IC50 ± SD
Bcl-2 = Bcl-2 (Homo sapiens, UniProt P10415); assay: FP-based binding assay, Bcl-2
Bcl-xL = Bcl-xL (Homo sapiens, UniProt Q07817); assay: FP-based binding assay, Bcl-xL; conditions: for Ki: Binding Affinities Bcl-xL Ki ± SD (nM), Table 4, * Ki is an estimate, compound more potent than the tracer
[5] = Toxicity (maximum tolerated dose) in SCID mice; format: in vivo
Text: These experiments established the maximum tolerated doses (MTD).

[6] = Table 4, 4 days, read-out: Cell Growth Inhibition (IC50 ± SD, nM) H146
[7] = Table 4, 4 days, read-out: Cell Growth Inhibition (IC50 ± SD, nM) RS4;11
[8] = Table 4, read-out: Cell Growth Inhibition (IC50 ± SD, nM) ML-2
[9] = read-out: Binding Affinities Bcl-xL IC50 ± SD, Table 4, FP-based assay

Bcl-2, sequence (P10415 whole entry): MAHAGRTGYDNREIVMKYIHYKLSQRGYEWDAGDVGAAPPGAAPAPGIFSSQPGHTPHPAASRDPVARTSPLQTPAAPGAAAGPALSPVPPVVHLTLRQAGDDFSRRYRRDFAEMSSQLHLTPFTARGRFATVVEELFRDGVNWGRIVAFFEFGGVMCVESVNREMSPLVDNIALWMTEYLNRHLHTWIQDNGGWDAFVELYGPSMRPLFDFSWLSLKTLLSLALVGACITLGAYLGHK
Bcl-xL, sequence (Q07817 whole entry): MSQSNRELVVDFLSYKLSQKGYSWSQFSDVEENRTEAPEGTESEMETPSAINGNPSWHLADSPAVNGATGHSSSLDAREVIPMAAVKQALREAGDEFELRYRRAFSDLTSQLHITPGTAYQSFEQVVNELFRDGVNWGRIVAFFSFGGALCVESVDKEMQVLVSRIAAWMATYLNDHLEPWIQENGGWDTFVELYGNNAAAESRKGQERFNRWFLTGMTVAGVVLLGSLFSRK
Mcl-1, sequence (Q07820 whole entry, species assumed): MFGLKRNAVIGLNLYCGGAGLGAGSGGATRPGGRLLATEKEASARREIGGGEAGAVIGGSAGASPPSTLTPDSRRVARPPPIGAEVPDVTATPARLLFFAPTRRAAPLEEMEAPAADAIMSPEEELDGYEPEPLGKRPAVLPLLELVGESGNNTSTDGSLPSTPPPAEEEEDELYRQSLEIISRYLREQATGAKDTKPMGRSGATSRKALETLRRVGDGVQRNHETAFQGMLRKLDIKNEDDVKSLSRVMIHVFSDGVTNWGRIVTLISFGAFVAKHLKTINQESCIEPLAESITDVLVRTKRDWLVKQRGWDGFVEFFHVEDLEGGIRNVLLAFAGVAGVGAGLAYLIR

Molecule	IC50 (H146 cells; [6])	IC50 (Mcl-1)	IC50 (Bcl-2)	Ki (Bcl-2)	IC50 (RS4;11 cells; [7])	IC50 (Bcl-xL)	Ki (Bcl-xL)	IC50 [4, 8]	further results
CN(C)CC[C@H](CSc1ccccc1)Nc1ccc(S(=O)(=O)NC(=O)c2ccc(N3CCN(Cc4ccccc4-c4ccc(Cl)cc4)CC3)cc2)cc1[N+](=O)[O-] [ABT-737, reference compound]									IC50 (H146 cells; Table 3, 4 days, read-out: Cell Growth Inhibition (IC50 ± SD) H146): 62 ± 39 nM; Cleavage of PARP and caspase-3 (ML-2 cell line): highly effective in induction of cleavage of PARP and caspase-3; ML-2 cells undergoing apoptosis (ML-2 AML cell line): about 50%; Cleavage of PARP and caspase-3 (H146 cell line): highly effective in induction of cleavage of PARP and caspase-3; Cell death induction in H146 [1]: effectively induced cell death; IC50 (RS4;11 cells; Table 3, 4 days, read-out: Cell Growth Inhibition (IC50 ± SD) RS4, 11): 12 ± 6 nM; Apoptosis induction in RS4;11 (RS4;11 cell line [2]): highly effective in induction of apoptosis; Cleavage of PARP and caspase-3 (RS4;11 cell line [3]): highly effective in induction of cleavage of PARP and caspase-3; Blocking of interaction of cellular Bcl-2/Bcl-xL with Biotin-150 (cellular Bcl-2/Bcl-xL): blocked the interaction of cellular Bcl-2/Bcl-xL and Biotin-150 in a dose-dependent manner; IC50 ([4]; Table 3, read-out: Cell Growth Inhibition (IC50 ± SD) ML-2): 16 ± 2 nM
CNC(=O)c1c(-c2cccc(N3CCN(c4ccc(NS(=O)(=O)c5ccc(N[C@H](CCN6CCOCC6)CSc6ccccc6)c([N+](=O)[O-])c5)cc4)CC3)c2)c(-c2ccc(Cl)cc2)n(C)c1C [Compound 124]	178 ± 65 nM	> 10000 nM	14 ± 2 nM	3 ± 0.6 nM	89 ± 30 nM	5 ± 1 nM	1 ± 0.2 nM	382 ± 138 nM	
CNC(=O)c1c(-c2cccc(N3CCN(c4ccc(NS(=O)(=O)c5ccc(N[C@H](CCN(C)C)CSc6ccccc6)c([N+](=O)[O-])c5)cc4)CC3)c2)c(-c2ccc(Cl)cc2)n(C)c1C [Compound 125]	36 ± 26 nM	> 10000 nM			74 ± 44 nM		1.6 ± 0.8 nM	215 ± 52 nM	IC50 (Bcl-2; read-out: Binding Affinities Bcl-2 IC50 ± SD, Table 4, FP-based assay): 5 ± 1 nM; Ki (Bcl-2; read-out: Binding Affinities Bcl-2 Ki ± SD, Table 4, * Ki is an estimate, compound more potent than the tracer): 1.1 ± 0.2 nM; IC50 (Bcl-xL; [9]): 6 ± 3 nM
CN(C)CC[C@@H](CSc1ccccc1)Nc1ccc(S(=O)(=O)Nc2ccc(N3CCN(c4cccc(-c5ccnn5-c5ccc(Cl)cc5)c4)CC3)cc2)cc1[N+](=O)[O-] [Compound 130]									Weight loss or other signs of toxicity ([5]; female SCID mice, intravenously, daily, 5-times a week for 2 weeks, 25 mg/kg): no or minimal weight loss or other signs of toxicity
Cc1c(C(=O)NS(C)(=O)=O)c(-c2cccc(N3CCN(c4ccc(NS(=O)(=O)c5ccc(N[C@H](CCN(C)C)CSc6ccccc6)c([N+](=O)[O-])c5)cc4)CC3)c2)c(-c2ccc(Cl)cc2)n1C [Compound 133]	38 ± 22 nM	> 10000 nM	1 ± 0.2 nM	< 1 nM	87 ± 19 nM		1.3 ± 0.3 nM	160 ± 53 nM	Weight loss at higher dose ([5]; SCID mice, 50 mg/kg): caused weight loss; IC50 (Bcl-xL; [9]): 5 ± 1 nM
Cc1cc(-c2cccc(N3CCN(c4ccc(NS(=O)(=O)c5ccc(N[C@H](CCN(C)C)CSc6ccccc6)c([N+](=O)[O-])c5)cc4)CC3)c2)c(-c2ccc(Cl)cc2)n1C [Compound 168, (R)—N-(4-(4-(3-(2-(4-chlorophenyl)-1,5-dimethyl-1H-pyrrol-3-yl)phenyl)piperazin-1-yl)phenyl)-4-((4-(dimethylamino)-1-(phenylthio)butan-2-yl)amino)-3-nitrobenzenesulfonamide]		> 5000 nM				3 ± 0.4 nM	3 nM and < 1 nM		
Cc1c(C(=O)O)c(-c2cccc(N3CCN(c4ccc(NS(=O)(=O)c5ccc(N[C@H](CCN(C)C)CSc6ccccc6)c([N+](=O)[O-])c5)cc4)CC3)c2)c(-c2ccc(Cl)cc2)n1C [Compound 178, (R)-5-(4-chlorophenyl)-4-(3-(4-(4-(4-((4-(dimethylamino)-1-(phenylthio)butan-2-yl)amino)-3-nitrophenylsulfonamido)phenyl)piperazin-1-yl)phenyl)-1,2-dimethyl-1H-pyrrole-3-carboxylic acid]	87 ± 60 nM	> 10000 nM	1 ± 0.1 nM	< 1 nM	26 ± 4 nM		1.6 ± 1 nM	124 ± 62 nM	IC50 (Bcl-xL; [9]): 6 ± 4 nM
Cc1c(C(=O)O)c(-c2cccc(N3CCN(c4ccc(NS(=O)(=O)c5ccc(N[C@H](CCN(C)C)CSc6ccccc6)c(S(=O)(=O)C(F)(F)F)c5)cc4)CC3)c2)c(-c2ccc(Cl)cc2)n1C [Compound 185, (R)-5-(4-chlorophenyl)-4-(3-(4-(4-(4-((4-(dimethylamino)-1-(phenylthio)butan-2-yl)amino)-3-((trifluoromethyl)sulfonyl)phenylsulfonamido)phenyl)piperazin-1-yl)phenyl)-1,2-dimethyl-1H-pyrrole-3-carboxylic acid]	177 ± 73 nM	> 10000 nM	2.2 ± 1.6 nM	< 1 nM	81 ± 7 nM	5 ± 4 nM	1.3 ± 1 nM	550 ± 204 nM	
Cc1c(C(=O)O)c(-c2cccc(N3CCN(c4ccc(NS(=O)(=O)c5ccc(N[C@H](CCN6CCOCC6)CSc6ccccc6)c(S(=O)(=O)C(F)(F)F)c5)cc4)CC3)c2)c(-c2ccc(Cl)cc2)n1C [Compound 186, (R)-5-(4-chlorophenyl)-1,2-dimethyl-4-(3-(4-(4-(4-((4-morpholino-1-(phenylthio)butan-2-yl)amino)-3-((trifluoromethyl)sulfonyl)phenylsulfonamido)phenyl)piperazin-1-yl)phenyl)-1H-pyrrole-3-carboxylic acid]	430 ± 207 nM	> 10000 nM	14 ± 3 nM	3.4 ± 0.6 nM	493 ± 64 nM	6 ± 3 nM	1.6 ± 0.8 nM	1090 ± 562 nM	
Cc1c(C(=O)O)c(-c2cccc(N3CCN(c4ccc(NS(=O)(=O)c5ccc(N[C@H](CCN6CCOCC6)CSc6ccccc6)c([N+](=O)[O-])c5)cc4)CC3)c2)c(-c2ccc(Cl)cc2)n1C [Compound 187, (R)-5-(4-chlorophenyl)-1,2-dimethyl-4-(3-(4-(4-(4-((4-morpholino-1-(phenylthio)butan-2-yl)amino)-3-nitrophenylsulfonamido)phenyl)piperazin-1-yl)phenyl)-1H-pyrrole-3-carboxylic acid]	181 ± 61 nM	> 10000 nM	2 ± 1 nM	< 1 nM	99 ± 28 nM	5 ± 2 nM	1.3 ± 0.6 nM	225 ± 49 nM	
Flu-BID: "Homemade fluorescein labeled" "BID (79-99)" peptide, fluorescent probe "in FP assays for" Mcl-1 [reference compound]									Kd (Mcl-1; saturation FP, 2 nM probe, increasing protein, read-out: Kd of fluorescent probe to Mcl-1): 6.8 ± 1.5 nM
